Data from patent publication US20200147149A1, “COMPOSITIONS AND METHODS FOR THE MODULATION OF GUT SENSORY CELLS” (Duke University, priority 2017, published 2020).
“Also recorded” adds a separate entry of the source.

Experiments:
Type in all cases: cell-based, mouse
nodose neurons [1] = experiment: Calcium imaging of dissociated Phox2bCRE_GCaMP6s nodose neurons
Experimental: For neurons, Phox2bCRE_GCaMP6s (n=3) nodose neurons were dissociated and plated. Nodose ganglia were dissected and digested in Liberase (Roche, 5401054001). Neurons were washed and filtered through a 70 μm cell strainer, then plated on 12 mm coverslips and placed in an incubator overnight. Cells were imaged 1-2 days later. Coverslips were placed in the recording chamber of a Zeiss Examiner Z1 and imaged with a Hamamatsu camera (Orca-flash4.0; C11440) using the Zeiss ZEN software package. For enteroendocrine cells, CckCRE_tdTomato organoids with transduced with ΔG-rabies-GCaMP6s. Organoids were imaged using multi photon microscopy 3-4 days after transduction. Imaging buffer (in mM: 140 NaCl, 5 KCl, 2 CaCl2, 2 MgCl2, 10 HEPES) was continuously perfused over the coverslips. […] Images were analyzed with Fiji ([…]), and cell traces were plotted with Matlab.

nodose neurons [2] = experiment: Patch-clamp electrophysiology of nodose neurons cultured alone; conditions: 10-20 mM D-glucose
[3] = test system: vagal nodose neurons connected to enteroendocrine cells; experiment: Patch-clamp electrophysiology of nodose neurons co-cultured with enteroendocrine cells; conditions: D-glucose (10 mM); for excitatory postsynaptic potentials and action potentials in connected neurons: co-culture
Experimental: The small intestines of CckGFP and CckCRE_ChR2-tdTomato mice were dissected and flushed twice with cold PBS. The intestine was cut open lengthwise and cut again into ˜1 cm pieces. Tissue pieces were incubated with 3 mM EDTA at 4° C. for 15 minutes then at 37° C. for 15 minutes. New cold PBS was added and villi and crypts were mechanically detached. Villi and crypts were spun down and further digested in Collagenase and Dispase. Cells were spun down and re-suspended in L-15 media with 5% FBS and DNase to prevent cell clumping. Cells were passed through a 70 μm then 40 μm cell strainer to isolate single cells. Then cells were sorted using Fluorescence Activated Cell sorting (BD FACSAria) selecting for GFP fluorescence cells. Cells were sorted into culture media: 10 μl/ml Glutamax, 10 μl/ml HEPES, 20 μl/ml Penicillin-Streptomycin, 10 μl/ml N2 supplement, 20 μl/ml B27 supplement, 0.25 μl/ml EGF, 0.5 μl/ml Noggin, 1 μl/ml r-Spondin and 1 μl/ml NGF in Advanced DMEM/f12. Sorted cells were plated on Matrigel coated 12 mm coverslips at a concentration of ˜8-10 k enteroendocrine cells per coverslip. Nodose neurons were dissected and incubated with Liberase digestion enzyme. Enzyme was washed off and replaced with media. Single cells were dissociated by mechanical force and filtered through a 70 μm cell strainer. Neurons in media were plated evenly on up to 8 coverslips with enteroendocrine cells. Patch-clamp electrophysiology was performed 1-5 days after plating.
Enteroendocrine cells and nodose neurons were co-cultured as described above. Co-culture coverslips were placed in the recording chamber filled with extracellular solution. Recordings were carried out at room temperature using a MultiClamp 700B amplifier (Axon Instruments), digitized using a Digidata 1550A (Axon Instruments) interface, and pClamp software (Axon Instruments) for data acquisition. Data was filtered at 1 kHz and sampled at 10 kHz. CCK-producing enteroendocrine cells were identified by GFP expression and neurons by their morphology and lack of fluorescence. Recordings were made using borosilicate glass pipettes pulled to ˜3.5 MΩ resistance [DVB4]. Extracellular solution contained (in mM): 140 NaCl, 5 KCl, 2 CaCl2, 2 MgCl2, 10 HEPES, pH 7.4 (300-305 mOsmol). For voltage-clamp recordings, intracellular solution contained (in mM): 140 CsF, 10 NaCl, 0.1 CaCl2, 2 MgCl2, 1.1 EGTA, 10 HEPES, 10 sucrose (pH, 7.25, 290-295 mOsmol). For current-clamp recordings, intracellular solution contained (in mM): 140 KCl, 0.5 EGTA, 5 HEPES, 3 Mg-ATP, 10 sucrose (pH, 7.25, 290-295 mOsmol). Neurons were held at −70 mV for 5 min after patching in voltage-clamp mode (to stabilize cells), and then switched to the current-clamp mode. At the resting membrane potential, cell properties such as input resistance, and spike threshold were determined using 200 ms steps from −40 pA to 100 pA in 20 pA increment. […] After glucose exposure, neurons were tested with a current or voltage pulse to confirm the health of the cell. For glutamate receptor blocker experiments, the […]® Micro-perfusion system (Automate Scientific, Inc.) was used. Once the neuron was patched, the […]® nozzle was brought to within 100 μm of the cell, while extracellular solution was perfusing. Kynurenic acid (3 mM) was perfused, then washed for 5 minutes after and the neuron was tested again. EPSC responses were recorded for 1 second after light stimulation. Data are presented as the mean±S.E.M. and significance was determined using a two-tailed Student's t test.

enteroendocrine cells = experiment: iGluSnFR-HEK cell and CckCRE_tdTomato enteroendocrine cell co-culture, imaging of glutamate release; conditions: D-glucose 40 mM, n=3 cultures
Experimental: CckCRE_tdTomato enteroendocrine cells were isolated as described above. Isolated cells were mixed with iGluSnFR-HEK cells at a ratio of 10:1, then plated on 1% Matrigel coated coverslips. Control iGluSnFR-HEK cells were plated alone. Cells were incubated for 12-18 hours before imaging. Coverslips were imaged using a multiphoton microscopy system (Bruker Ultima IV with a Chameleon Vision II tunable laser). Imaging frames were captured at 1.876 fps, using 920 nm light. Imaging series were analyzed using Fiji (ImageJ), and cell traces were plotted with Excel.

[4] = 20 mM D-glucose, mice=3, cells=246

## O=C[C@H](O)[C@@H](O)[C@H](O)[C@H](O)CO [D-glucose]
Nodose neurons [1]; 20 mM D-glucose, mice=2, cells=73
  percent of Fast Blue positive nodose neurons (innervating small intestine) that did not respond: 100%
Nodose neurons [1]; [4]
  percent of nodose neurons that did not respond: 97.3±1.9%
  percent of nodose neurons that responded: 2.7±1.9%
Nodose neurons [1]; D-glucose (10 mM) as printed, n=246 cells from 3 mice
  calcium transients in dissociated nodose ganglia neurons: did not elicit calcium transients
Nodose neurons [1]; D-glucose (20 mM)
  calcium response in Fast Blue labeled nodose neurons: no calcium response was observed
Nodose neurons [2]
  excitatory currents / action potentials in nodose neurons cultured alone: neither excitatory currents nor action potentials were observed
Nodose neurons [2]; listed as glucose
  excitatory currents / action potentials in nodose neurons cultured alone: did not activate
[3]
  excitatory postsynaptic potentials and action potentials in connected neurons: evoke excitatory postsynaptic potentials and action potentials
[3]; listed as glucose
  excitatory postsynaptic potentials and action potentials in connected neurons: evoked EPSCs; also recorded: induced excitatory post-synaptic potentials and action potential spikes
[3]; current-clamp, n=5 pairs
  action potentials in the connected neurons (average): 2±0.32
[3]; voltage-clamp, n=6
  average current of the excitatory post-synaptic potentials (EPSPs): 61.65±15.21 pA
  average frequency of the excitatory post-synaptic potentials: 0.86±0.17 Hz
Enteroendocrine cells
  fluorescence response of iGluSnFR-HEK cells in close proximity to enteroendocrine cells (glutamate release): rapidly fluoresced green; also recorded: elicits a response
